From paper PMC8896928, “Preparation, Characterization, and Preliminary Imaging Study of [^188Re]Re-Ibandronate as a Novel Theranostic Radiopharmaceutical for Bone Metastasis” (Contrast Media & Molecular Imaging, 2022)
Where two headings read alike, the source gives them in different places.

Legend:
[1] = Biodistribution in normal mice; assay type: in vivo, Kunming mice
Procedure: Twenty Kunming mice (originated from Swiss albino mice and introduced into Kunming, China.) were randomly divided into five groups (equal number of males and females). Each group was injected with 3.7 MBq [^188Re]Re-IBA. […] The blood and important tissue and organ samples were collected to measure the radioactivity count by γ counter. Following the time attenuation correction, the percentage injection dose rate per gram of tissue (%ID/g) was calculated at each time point. The result is expressed as mean ± standard deviation ( χ¯ ± s). The in vivo distribution of [^188Re]ReO4^− was studied using the aforementioned method.

patients = conditions: cited from earlier work; for Nephrotoxicity: patients, renal safety
[2] = Kunming mice, 24 h, cited from earlier work
[3] = 0.9% NaCl, 24 h; cited from earlier work
[4] = Swiss mice, cited from earlier work
[5] = patients with bone tumors, P < 0.05

Compound: [O]=[188Re](=[O])(=[O])[O-] [[^188Re]ReO4^−, reference compound]
- %ID/g Blood ([1]; 1 h): 4.648 ± 1.631 %ID/g
- %ID/g Brain ([1]; 1 h): 0.207 ± 0.044 %ID/g
- %ID/g Femur ([1]; 1 h): 1.670 ± 0.345 %ID/g
- %ID/g Gonad ([1]; 1 h): 1.096 ± 0.007 %ID/g
- %ID/g Heart ([1]; 1 h): 1.422 ± 0.339 %ID/g
- %ID/g Kidney ([1]; 1 h): 2.923 ± 0.658 %ID/g
- %ID/g Liver ([1]; 1 h): 2.480 ± 0.556 %ID/g
- %ID/g Lung ([1]; 1 h): 4.458 ± 1.379 %ID/g
- %ID/g Muscle ([1]; 1 h): 0.775 ± 0.074 %ID/g
- %ID/g Small intestine ([1]; 1 h): 1.671 ± 0.448 %ID/g
- %ID/g Spleen ([1]; 1 h): 2.341 ± 0.973 %ID/g
- %ID/g Stomach ([1]; 1 h): 22.747 ± 5.67 %ID/g
- %ID/g Thyroid gland ([1]; 1 h): 20.247 ± 2.489 %ID/g
- Femur/heart radioactivity ratio ([1]; 1 h): 1.195
- Femur/liver radioactivity ratio ([1]; 1 h): 0.685
- Femur/muscle radioactivity ratio ([1]; 1 h): 2.193
- %ID/g Blood ([1]; 3 h): 1.578 ± 0.419 %ID/g
- %ID/g Brain ([1]; 3 h): 0.070 ± 0.024 %ID/g
- %ID/g Femur ([1]; 3 h): 0.431 ± 0.038 %ID/g
- %ID/g Gonad ([1]; 3 h): 0.404 ± 0.130 %ID/g
- %ID/g Heart ([1]; 3 h): 0.401 ± 0.050 %ID/g
- %ID/g Kidney ([1]; 3 h): 0.683 ± 0.118 %ID/g
- %ID/g Liver ([1]; 3 h): 0.530 ± 0.038 %ID/g
- %ID/g Lung ([1]; 3 h): 1.026 ± 0.312 %ID/g
- %ID/g Muscle ([1]; 3 h): 0.182 ± 0.023 %ID/g
- %ID/g Small intestine ([1]; 3 h): 0.558 ± 0.207 %ID/g
- %ID/g Spleen ([1]; 3 h): 0.490 ± 0.090 %ID/g
- %ID/g Stomach ([1]; 3 h): 8.578 ± 3.928 %ID/g
- %ID/g Thyroid gland ([1]; 3 h): 10.167 ± 1.618 %ID/g
- Femur/heart radioactivity ratio ([1]; 3 h): 1.075
- Femur/liver radioactivity ratio ([1]; 3 h): 0.813
- Femur/muscle radioactivity ratio ([1]; 3 h): 2.372
- %ID/g Blood ([1]; 6 h): 0.533 ± 0.254 %ID/g
- %ID/g Brain ([1]; 6 h): 0.044 ± 0.019 %ID/g
- %ID/g Femur ([1]; 6 h): 0.213 ± 0.102 %ID/g
- %ID/g Gonad ([1]; 6 h): 0.207 ± 0.065 %ID/g
- %ID/g Heart ([1]; 6 h): 0.176 ± 0.074 %ID/g
- %ID/g Kidney ([1]; 6 h): 0.338 ± 0.191 %ID/g
- %ID/g Liver ([1]; 6 h): 0.258 ± 0.086 %ID/g
- %ID/g Lung ([1]; 6 h): 0.487 ± 0.132 %ID/g
- %ID/g Muscle ([1]; 6 h): 0.109 ± 0.065 %ID/g
- %ID/g Small intestine ([1]; 6 h): 0.263 ± 0.050 %ID/g
- %ID/g Spleen ([1]; 6 h): 0.270 ± 0.098 %ID/g
- %ID/g Stomach ([1]; 6 h): 2.828 ± 1.287 %ID/g
- %ID/g Thyroid gland ([1]; 6 h): 4.299 ± 1.015 %ID/g
- Femur/heart radioactivity ratio ([1]; 6 h): 1.205
- Femur/liver radioactivity ratio ([1]; 6 h): 0.823
- Femur/muscle radioactivity ratio ([1]; 6 h): 1.950
- %ID/g Blood ([1]; 24 h): 0.023 ± 0.009 %ID/g
- %ID/g Brain ([1]; 24 h): 0.017 ± 0.004 %ID/g
- %ID/g Femur ([1]; 24 h): 0.031 ± 0.003 %ID/g
- %ID/g Gonad ([1]; 24 h): 0.021 ± 0.009 %ID/g
- %ID/g Heart ([1]; 24 h): 0.017 ± 0.005 %ID/g
- %ID/g Kidney ([1]; 24 h): 0.017 ± 0.003 %ID/g
- %ID/g Liver ([1]; 24 h): 0.023 ± 0.010 %ID/g
- %ID/g Lung ([1]; 24 h): 0.054 ± 0.017 %ID/g
- %ID/g Muscle ([1]; 24 h): 0.021 ± 0.008 %ID/g
- %ID/g Small intestine ([1]; 24 h): 0.023 ± 0.004 %ID/g
- %ID/g Spleen ([1]; 24 h): 0.028 ± 0.007 %ID/g
- %ID/g Stomach ([1]; 24 h): 0.053 ± 0.032 %ID/g
- %ID/g Thyroid gland ([1]; 24 h): 0.051 ± 0.026 %ID/g
- Femur/heart radioactivity ratio ([1]; 24 h): 1.853
- Femur/liver radioactivity ratio ([1]; 24 h): 1.325
- Femur/muscle radioactivity ratio ([1]; 24 h): 1.498
- %ID/g Blood ([1]; 48 h): 0.007 ± 0.002 %ID/g
- %ID/g Brain ([1]; 48 h): 0.013 ± 0.006 %ID/g
- %ID/g Femur ([1]; 48 h): 0.011 ± 0.005 %ID/g
- %ID/g Gonad ([1]; 48 h): 0.007 ± 0.001 %ID/g
- %ID/g Heart ([1]; 48 h): 0.011 ± 0.004 %ID/g
- %ID/g Kidney ([1]; 48 h): 0.017 ± 0.007 %ID/g
- %ID/g Liver ([1]; 48 h): 0.018 ± 0.010 %ID/g
- %ID/g Lung ([1]; 48 h): 0.036 ± 0.008 %ID/g
- %ID/g Muscle ([1]; 48 h): 0.020 ± 0.005 %ID/g
- %ID/g Small intestine ([1]; 48 h): 0.014 ± 0.005 %ID/g
- %ID/g Spleen ([1]; 48 h): 0.022 ± 0.006 %ID/g
- %ID/g Stomach ([1]; 48 h): 0.029 ± 0.012 %ID/g
- %ID/g Thyroid gland ([1]; 48 h): 0.025 ± 0.009 %ID/g
- Femur/heart radioactivity ratio ([1]; 48 h): 1.060
- Femur/liver radioactivity ratio ([1]; 48 h): 0.638
- Femur/muscle radioactivity ratio ([1]; 48 h): 0.585

Compound: CCCCCN(C)CCC(O)(P(=O)(O)O)P(=O)(O)O [ibandronic acid, Ibandronic acid]
- Renal function during follow-up (patients; 44 patients, average follow-up of 18.5 months): no impairment of renal function
- Pain relief rate and improvement in the quality of life vs zoledronic acid group (patients; [5]): higher
- Rate of adverse reactions vs zoledronic acid group (patients; [5]): lower
- Nephrotoxicity (patients): extremely low and equivalent to that of the placebo

Compound: O=P(O)(O)C(O)(Cn1ccnc1)P(=O)(O)O [zoledronic acid]
- Nephrotoxicity (patients): possible occurrence of nephrotoxicity

Compound: [^188Re]Re-bisphosphonate hydroxyethylidene diphosphonate [[^188Re]Re-HEDP]
- Bone uptake ([2]; ref 37): 22.36 ± 4.11 %ID/g
- Bone uptake ([2]; ref 38): 11.08 ± 4.25 %ID/g
- Stability (RCP) [3]: 91.2%
- Bone uptake (maximum) ([4]; 4 h): 1.0 ± 0.1 %ID/g

Compound: [^188Re]Re-pamidronate [[^188Re]Re-PMA]
- Bone uptake (lowest) ([4]; 1 h): 0.40 ± 0.05 %ID/g
- Bone uptake (highest) ([4]; 4 h): 0.81 ± 0.25 %ID/g
